Test results from US8716180B2 (priority 2005, dated 2014).

System: deoxynivalenol (DON)
Set-up: species or system winter wheat
Conditions: in vivo

N#Cc1c[nH]cc1-c1cccc2c1OC(F)(F)O2 [Lot B, fludioxonil]
Amount of DON (deoxynivalenol) in the ear of wheat: 0 ppb
